In patent US20230279372A1, “METHODS TO CONTROL LIPOKINE CONCENTRATIONS AND USES THEREOF” (Ohio State Innovation Foundation, priority 2020, published 2023):

How the values were obtained:
[1] = test system: Wild-type C57BL/6 male mice; experiment: Acute injection, in vivo cardiac hemodynamics (pressure-volume analysis) in wild-type mice; conditions: acute injection via femoral vein, 1.5 μg/kg; compared to mice injected with saline
Description: (§1) Cardiac pressure-volume analysis. Hemodynamic, systolic, and diastolic measurements performed as previously done. Briefly, mice were anesthetized with 1% isoflurane and a 1.4 F Millar catheter was advanced from the carotid artery into the left ventricle. LV pressure-volume dynamics were simultaneously measured over a wide range of heart rates (240-600 bpm). For the TNT experiments, since there were different baseline heart rates, data was normalized to the lowest heart rate. For the acute injection experiments, 12,13-diHOME, 9,10-diHOME, or 9-HODE were infused through the femoral vein (all at 1.5 μg/kg). All pressure-volume loop parameters were calculated using PV loop analysis software module for Lab Chart on ADInstruments.
Both +BAT and exercise improved cardiac function in mice and increased circulating 12,13-diHOME. To determine if 12,13-diHOME was responsible for the improved cardiac function in +BAT and exercise-trained mice, mice were acutely injected with 12,13-diHOME and in vivo cardiac hemodynamics were measured. Acute treatment of 12,13-diHOME improved systolic function (FIG. 3A; FIG. 8A) and diastolic function (FIG. 3B; FIG. 8B) compared to mice injected with saline. There was no effect of 9,10-diHOME or 9-HODE to alter systolic (FIG. 3A; FIG. 8A) or diastolic function (FIG. 3B; FIG. 8B).

[2] = test system: NOS1^−/− mice; experiment: Acute injection of 12,13-diHOME, in vivo cardiac hemodynamics in NOS1−/− mice
Description: as §1
Next, the mechanism through which 12,13-diHOME modulates cardiomyocyte function and respiration was investigated. It was shown that nitric oxide (NO) production via NO synthase type 1 (NOS1) is essential for the beneficial effects of exercise to the heart. Since +BAT had similar effects on the heart as exercise, 12,13-diHOME can function through a similar mechanism. Mice deficient in NOS1 (NOS1^−/−) were acutely injected with 12,13-diHOME and in vivo cardiac hemodynamics were measured. […] In addition, 12,13-diHOME had no effect on NOS1^−/− cardiomyocyte peak shortening, Ca^2+ transients, or kinetics (FIGS. 5C-5F).

[3] = test system: isolated cardiomyocytes; experiment: Cardiomyocyte sarcomere function and calcium transient, wild-type cardiomyocytes; format: cell-based, mice; conditions: acute superfusion of 10 μM; vs vehicle
Experimental: (§2) Measurements of Cardiomyocyte Sarcomere Function and Calcium Transient. Cardiomyocytes were isolated from wild-type C57BL/6 male mice (Charles River) or NOS1^−/− mice (B6; 129S4-Nos1^tm1Plh/J; stock no. 002633; Jackson Labs). Unloaded cardiomyocyte function (sarcomere shortening, kinetics and Ca^2+ transients) were measured as previously performed. In brief, hearts were rapidly excised and cannulated on a constant-flow Langendorff perfusion apparatus, and perfused via the aorta at 37° C. with buffer containing (in mM) 113 NaCl, 4.7 KCl, 0.6 KH2PO4, 0.6 Na2HPO4, 1.2 MgSO4, 12.4 BMD, 12 NaHCO3, 10 KHCO3, 10 HEPES 1M, and 30 Taurine, followed by digestion with liberase enzyme (0.25 mg/ml). After perfusion and digestion ventricles were removed and minced (under sterile conditions), filtered, and equilibrated with 1 mM CaCl2 and FBS at room temperature. Cardiomyocytes were plated on laminin-coated glass slides and placed on the stage of an inverted Olympus IX-71 microscope and superfused (˜1 ml/min at 30° C.) with contractile buffer containing (in mM, pH 7.4) 4 KCl, 131 NaCl, 1 MgCl2, 10 HEPES, 1 CaCl2), and 10 glucose. The cells were visualized using a 40× objective and field-stimulated at 1 Hz for 3 ms using a Myopacer Field-Stimulator system. Sarcomere length, time to contraction/relaxation and contraction/relaxation kinetics will were recorded using the IonOptix video imaging system and a Myocam-S Digital charge-coupled device camera. Changes in intracellular Ca^2+ levels were monitored using (0.5 μM) Fura-2 dual-excitation (360/380 nm) single emission (510 nm) ratiometric imaging. Measurements were taken at baseline and with acute superfusion of 10 μM 12,13-diHOME.

[4] = test system: NOS1^−/− cardiomyocyte; experiment: Cardiomyocyte sarcomere function and calcium transient, NOS1−/− cardiomyocytes; format: cell-based, mice; conditions: vs PBS
Experimental: as §2

[5] = test system: cardiomyocytes constitutively expressing luciferase; experiment: Cardiomyocyte fatty acid uptake (FFA-SS-Luc); format: cell-based, mice; conditions: 10 μM, 10 μM FFA-SS-Luc, after 30 min of incubation; vs vehicle
Experimental: Cardiomyocyte Fatty Acid Uptake. Cardiomyocytes were isolated from 12-24 week old male LucTg (FVB-Tg(CAG-luc-GFP)L2G85Chco/J; stock no. 008450; Jackson Labs) chow-fed mice. Isolated cardiomyocytes (50,000 cells per well) were seeded onto laminin-coated 12-well plates according to standard protocols in FBS-free media for one hour. After one hour of serum-starve, 10 μm FFA-SS-Luc (Intrace Medical) conjugated probe was added to each well with or without 10 μM 12,13-diHOME directly before imaging using the IVIS Spectrum for […] optical imaging using sequential 3 min exposures for 30 min. Data were analyzed using Living Image Software, and movies were assembled from individual images using ImageJ.
Previous studies have indicated a role for 12,13-diHOME to increase fatty acid uptake. To test whether 12,13-diHOME increases fatty acid uptake in cardiomyocytes, cardiomyocytes constitutively expressing luciferase in vitro were isolated. Cells were treated with FFA-SS Luc, a fatty acid conjugated to luciferin, in the presence of 12,13-diHOME or a vehicle control.

[6] = test system: isolated cardiomyocytes; experiment: Seahorse bioanalyzer respiration, wild-type cardiomyocytes; format: cell-based, mice
Experimental: (§3) Seahorse bioanalyzer. Cardiomyocytes were isolated from 12-24 week old male C57BL/6 male (Charles river) or NOS1^−/− mice (B6; 129S4-Nos1^tm1Pth/J; stock no. 002633; Jackson Labs), chow fed mice. Isolated cardiomyocytes (25,000 per well) were seeded onto laminin-coated Seahorse Plates (Agilent) according to standard protocols. Cells were treated for 1 h with 10 μM 12,13-diHOME or were untreated. The oxygen-consumption rates (OCR; indicating mitochondrial respiration) and extracellular acidification rates (ECAR; indicating glycolysis rate) were monitored in a Seahorse XF24 instrument using the standard protocol of 3-min mix, 2-min wait and 3-min measure. Carbonyl cyanide-p-trifluoromethoxy-phenyl-hydrazon (FCCP; 2 μM) was used to determine the cells maximal respiratory capacity by allowing the electron transport chain to function at its maximal rate (maximal respiratory capacity is derived by subtracting non-mitochondrial respiration from the FCCP rate). Oligomycin (a complex V inhibitor; 2 μM) was used to derive ATP-linked respiration (by subtracting the oligomycin rate from baseline cellular OCR) and proton leak respiration (by subtracting non-mitochondrial respiration from the oligomycin rate). AntimycinA/Roteone (mitochondrial inhibitors; 0.5 μM) was used to determine non-mitochondrial respiration. For mechanistic experiments, cells were treated for 1 h with tetracaine (specific RyR inhibitor; 1 mM), 2,3-butanedione monoxime (BDM; myosin-ATPase inhibitor; […]) and nifedipine (L-type calcium channel inhibitor; 10 μM) were used. Data from wells of the same treatment group were averaged together and analyzed directly using Waves software. For the normalization of respiration to protein content, cells were lysed in RIPA buffer and protein concentration was measured by Bradford assay.

[7] = test system: NOS1^−/− cardiomyocytes; experiment: Seahorse bioanalyzer respiration, NOS1−/− cardiomyocytes; format: cell-based, mice; conditions: vs vehicle
Experimental: as §3

[8] = test system: Sham or +BAT mice; experiment: Oral gavage of sEH inhibitors in Sham or +BAT mice, in vivo cardiac hemodynamics; conditions: daily oral gavage 0.5 mg/kg for 2 weeks, starting 10 weeks after surgery
Experimental: Oral gavage of sEH inhibitors. C57BL/6 male mice (Charles River Laboratories) were fed a normal chow diet before and throughout the experiment. Sham and +BAT mice underwent daily oral gavage of sEH inhibitors beginning 10 weeks after the transplant or sham surgery. Mice underwent daily oral gavage with vehicle (Phosphate Buffer Saline [PBS]), or 25 mg/L AUDA in PBS (Cayman Chemicals #10007927), or 50 mg/L t-AUCB in PBS (Cayman Chemicals #16568). Mice were gavaged at 0.5 mg/kg daily for 14-16 days.
as §1, with “ADInstruments. […]” for “ADInstruments.”

[9] = incubation with RyR2 inhibitor tetracaine

For `CCCCC/C=C\CC(O)C(O)CCCCCCCC(=O)O` (stereo not drawn) [9,10-diHOME], the diastolic function [1] was “no effect” and the systolic function [1] was “no effect”.

In the case of `CCCCC/C=C\C=C\C(O)CCCCCCCC(=O)O` (stereo not drawn) [9-HODE], the diastolic function [1] is reported as “no effect” and the systolic function [1] is reported as “no effect”.

`CCCCCC(O)C(O)C/C=C\CCCCCCCC(=O)O` (stereo not drawn) [12,13-diHOME] was tested, and the diastolic function [1] was “improved”, the systolic function [1] was “improved” and the diastolic function [2] was “no effect”. For the same compound, the systolic function [2] was “no effect”, the “Ca2+ transient amplitude” value [3] was “increase” and the “maximal velocity of relengthening (−dL/dt)” value [3] was “greater”. The “maximal velocity of shortening (+dL/dt)” value [3] was “greater”, the peak cardiomyocyte shortening [3] was “increased” and the “Ca2+ transients” value [4] was “no effect”. For the same compound, the “kinetics (maximal velocity of shortening and relengthening)” value [4] was “no effect”, the peak shortening [4] was “no effect” and the fatty acid uptake [5] was “significantly elevated”. The “basal oxygen consumption rates (OCR)” value ([6]; 10 μM for 1 h, vs vehicle) was “increased”, the maximal respiratory capacity ([6]; 10 μM for 1 h, vs vehicle) was “increased” and the non-mitochondrial respiration ([6]; 10 μM for 1 h, vs vehicle) was “increased”. The “basal OCR” value ([6]; in the presence or absence of RyR2 inhibitor tetracaine) was “increased”, the “effect of 12,13-diHOME on maximal respiration” value [6, 9] was “blunted” and the “effect of 12,13-diHOME on non-mitochondrial respiration” value [6, 9] was “blunted”. The “effect of 12,13-diHOME on basal OCR under myosin inhibition” value ([6]; with myosin inhibitor BDM) was “did not prevent”, the “effect of 12,13-diHOME on maximal respiration under myosin inhibition” value ([6]; with myosin inhibitor BDM) was “did not prevent” and the “effect of 12,13-diHOME on non-mitochondrial respiration under myosin inhibition” value ([6]; with myosin inhibitor BDM) was “prevented the increase”. For the same compound, the “basal oxygen consumption rates (OCR)” value [7] was “no effect”, the maximal respiratory capacity [7] was “no effect” and the non-mitochondrial respiration [7] was “no effect”.

In the case of `O=C(O)CCCCCCCCCCCNC(=O)NC12CC3CC(CC(C3)C1)C2` [AUDA], the “cardiac function (systolic and diastolic) of +BAT vs Sham mice in the presence of sEH inhibitor” value [8] is reported as “no effect of +BAT to improve cardiac function”.

With `CCCCNc1ccc(C(=O)OCCN(C)C)cc1` [tetracaine, reference compound] the maximal respiration ([6]; tetracaine 1 mM for 1 h, independent of 12,13-diHOME) was “decrease”.
